Results reported in patent publication US20250098679A1, “HERBICIDAL PYRIDONE DERIVATIVES” (SYNGENTA CROP PROTECTION AG, priority 2021, published 2025).

Columns and labels:
Assay type in all cases: in vivo
Details in all cases: evaluated after 13 days
Zea mays (ZEAMX) [1] = assay: Pre-emergence Test, Zea mays (ZEAMX)
Setaria faberi (SETFA) [2] = assay: Post-emergence Test, Setaria faberi (SETFA); parameters: key to percentage damage caused to the plant, SETFA (five-point scale): 5=81-100%, 4=61-80%, 3=41-60%, 2=21-40%, 1=0-20% damage
Procedure, shortened: (§1)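 Tested at 1000 g/ha unless otherwise stated. Plants were held at 24/16 °C day/night with a 14 h light period. Percent damage was read at 13 days and reported in five bands.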

Setaria faberi (SETFA) [3] = assay: Pre-emergence Test, Setaria faberi (SETFA)
[4] = test system: Echinochloa crus-galli (ECHCG); assay: Pre-emergence Test, Echinochloa crus-galli (ECHCG)
[5] = test system: Ipomoea hederacea (IPOHE); assay: Pre-emergence Test, Ipomoea hederacea (IPOHE)
[6] = test system: Echinochloa crus-galli (ECHCG); assay: Post-emergence Test, Echinochloa crus-galli (ECHCG); parameters: key to percentage damage caused to the plant, ECHCG (five-point scale): 5=81-100%, 4=61-80%, 3=41-60%, 2=21-40%, 1=0-20% damage
Procedure, shortened: as §1

[7] = test system: Amaranthus palmeri (AMAPA); assay: Post-emergence Test, Amaranthus palmeri (AMAPA); parameters: key: 5=81-100%, 4=61-80%, 3=41-60%, 2=21-40%, 1=0-20% damage
Procedure, shortened: as §1

Zea mays (ZEAMX) [8] = assay: Post-emergence Test, Zea mays (ZEAMX); parameters: key to percentage damage caused to the plant, ZEAMX (five-point scale): 5=81-100%, 4=61-80%, 3=41-60%, 2=21-40%, 1=0-20% damage
Procedure, shortened: as §1

[9] = test system: Amaranthus retoflexus (AMARE); assay: Pre-emergence Test, Amaranthus retoflexus (AMARE)
[10] = test system: Ipomoea hederacea (IPOHE); assay: Post-emergence Test, Ipomoea hederacea (IPOHE); parameters: key to percentage damage caused to the plant, IPOHE (five-point scale): 5=81-100%, 4=61-80%, 3=41-60%, 2=21-40%, 1=0-20% damage
Procedure, shortened: as §1

[11] = test system: Amaranthus palmeri (AMAPA); assay: Pre-emergence Test, Amaranthus palmeri (AMAPA)
[12] = test system: Amaranthus retoflexus (AMARE); assay: Post-emergence Test, Amaranthus retoflexus (AMARE); parameters: key to percentage damage caused to the plant, AMARE (five-point scale): 5=81-100%, 4=61-80%, 3=41-60%, 2=21-40%, 1=0-20% damage
Procedure, shortened: as §1

CCn1c(Cn2nc(Cl)cc2Cl)cc(=O)c(C(=O)O)c1-c1ccc(Cl)c(Cl)c1 [Compound 134, 2-(3,4-dichlorophenyl)-6-[(3,5-dichloropyrazol-1-yl)methyl]-1-ethyl-4-oxo-pyridine-3-carboxylic acid]
3 (3=41-60%): percentage damage caused to the plant, ECHCG (five-point scale) ([6]; 250 g/Ha) | percentage damage caused to the plant, ZEAMX (five-point scale) (Zea mays (ZEAMX) [8]; 1000 g/ha) | percentage damage caused to the plant, IPOHE (five-point scale) ([10]; 1000 g/ha)
0: Pre-emergence Test ZEAMX, percentage damage caused to the plant (five-point scale) (Zea mays (ZEAMX) [1]; 250 g/Ha (*))
4 (4=61-80%): Pre-emergence Test ZEAMX, percentage damage caused to the plant (five-point scale) (Zea mays (ZEAMX) [1]; 1000 g/ha) | percentage damage caused to the plant, SETFA (five-point scale) (Setaria faberi (SETFA) [2]; 250 g/Ha) | percentage damage caused to the plant, SETFA (five-point scale) (Setaria faberi (SETFA) [2]; 1000 g/ha) | Pre-emergence Test ECHCG, percentage damage caused to the plant (five-point scale) ([4]; 250 g/Ha (*)) | Pre-emergence Test IPOHE, percentage damage caused to the plant (five-point scale) ([5]; 1000 g/ha) | percentage damage caused to the plant, ECHCG (five-point scale) ([6]; 1000 g/ha) | percentage damage caused to the plant, AMAPA (five-point scale) ([7]; 1000 g/ha) | percentage damage caused to the plant, IPOHE (five-point scale) ([10]; 250 g/Ha) | Pre-emergence Test AMAPA, percentage damage caused to the plant (five-point scale) ([11]; 1000 g/ha) | percentage damage caused to the plant, AMARE (five-point scale) ([12]; 1000 g/ha)
2 (2=21-40%): percentage damage caused to the plant, ZEAMX (five-point scale) (Zea mays (ZEAMX) [8]; 250 g/Ha) | Pre-emergence Test AMARE, percentage damage caused to the plant (five-point scale) ([9]; 1000 g/ha) | Pre-emergence Test AMAPA, percentage damage caused to the plant (five-point scale) ([11]; 250 g/Ha (*)) | percentage damage caused to the plant, AMARE (five-point scale) ([12]; 250 g/Ha)
1 (1=0-20%): Pre-emergence Test IPOHE, percentage damage caused to the plant (five-point scale) ([5]; 250 g/Ha (*)) | percentage damage caused to the plant, AMAPA (five-point scale) ([7]; 250 g/Ha) | Pre-emergence Test AMARE, percentage damage caused to the plant (five-point scale) ([9]; 250 g/Ha (*))
5 (5=81-100%): Pre-emergence Test SETFA, percentage damage caused to the plant (five-point scale) (Setaria faberi (SETFA) [3]; 250 g/Ha (*)) | Pre-emergence Test SETFA, percentage damage caused to the plant (five-point scale) (Setaria faberi (SETFA) [3]; 1000 g/ha) | Pre-emergence Test ECHCG, percentage damage caused to the plant (five-point scale) ([4]; 1000 g/ha)

CCn1c(Cn2nc(C(F)(F)F)cc2C(F)(F)F)cc(=O)c(C(=O)O)c1-c1ccc(Cl)c(Cl)c1 [Compound 135, 6-[[3,5-bis(trifluoromethyl)pyrazol-1-yl]methyl]-2-(3,4-dichlorophenyl)-1-ethyl-4-oxo-pyridine-3-carboxylic acid]
2 (2=21-40%): Pre-emergence Test IPOHE, percentage damage caused to the plant (five-point scale) ([5]; 1000 g/ha) | percentage damage caused to the plant, ZEAMX (five-point scale) (Zea mays (ZEAMX) [8]; 1000 g/ha) | percentage damage caused to the plant, IPOHE (five-point scale) ([10]; 250 g/Ha) | percentage damage caused to the plant, AMARE (five-point scale) ([12]; 1000 g/ha)
0: Pre-emergence Test SETFA, percentage damage caused to the plant (five-point scale) (Setaria faberi (SETFA) [3]; 1000 g/ha) | Pre-emergence Test AMAPA, percentage damage caused to the plant (five-point scale) ([11]; 1000 g/ha)
3 (3=41-60%): percentage damage caused to the plant, IPOHE (five-point scale) ([10]; 1000 g/ha)
4 (4=61-80%): percentage damage caused to the plant, SETFA (five-point scale) (Setaria faberi (SETFA) [2]; 1000 g/ha)
1 (1=0-20%): Pre-emergence Test ZEAMX, percentage damage caused to the plant (five-point scale) (Zea mays (ZEAMX) [1]; 1000 g/ha) | Pre-emergence Test ECHCG, percentage damage caused to the plant (five-point scale) ([4]; 1000 g/ha) | percentage damage caused to the plant, ECHCG (five-point scale) ([6]; 250 g/Ha) | percentage damage caused to the plant, AMAPA (five-point scale) ([7]; 250 g/Ha) | percentage damage caused to the plant, AMAPA (five-point scale) ([7]; 1000 g/ha) | percentage damage caused to the plant, ZEAMX (five-point scale) (Zea mays (ZEAMX) [8]; 250 g/Ha) | Pre-emergence Test AMARE, percentage damage caused to the plant (five-point scale) ([9]; 1000 g/ha) | percentage damage caused to the plant, AMARE (five-point scale) ([12]; 250 g/Ha)

CCn1c(Cn2nc(C(F)(F)F)cc2OCCOC)cc(=O)c(C(=O)O)c1-c1ccc(Cl)c(Cl)c1 [Compound 144, 2-(3,4-dichlorophenyl)-1-ethyl-6-[[5-(2-methoxyethoxy)-3-(trifluoromethyl)pyrazol-1-yl]methyl]-4-oxo-pyridine-3-carboxylic acid]
2 (2=21-40%): percentage damage caused to the plant, SETFA (five-point scale) (Setaria faberi (SETFA) [2]; 250 g/Ha) | percentage damage caused to the plant, ECHCG (five-point scale) ([6]; 250 g/Ha) | percentage damage caused to the plant, IPOHE (five-point scale) ([10]; 1000 g/ha) | percentage damage caused to the plant, AMARE (five-point scale) ([12]; 1000 g/ha)
1 (1=0-20%): Pre-emergence Test ECHCG, percentage damage caused to the plant (five-point scale) ([4]; 1000 g/ha) | Pre-emergence Test IPOHE, percentage damage caused to the plant (five-point scale) ([5]; 1000 g/ha) | percentage damage caused to the plant, AMAPA (five-point scale) ([7]; 1000 g/ha) | percentage damage caused to the plant, IPOHE (five-point scale) ([10]; 250 g/Ha) | percentage damage caused to the plant, AMARE (five-point scale) ([12]; 250 g/Ha)
5 (5=81-100%): Pre-emergence Test SETFA, percentage damage caused to the plant (five-point scale) (Setaria faberi (SETFA) [3]; 1000 g/ha)
0: Pre-emergence Test ZEAMX, percentage damage caused to the plant (five-point scale) (Zea mays (ZEAMX) [1]; 1000 g/ha) | percentage damage caused to the plant, AMAPA (five-point scale) ([7]; 250 g/Ha) | percentage damage caused to the plant, ZEAMX (five-point scale) (Zea mays (ZEAMX) [8]; 250 g/Ha) | Pre-emergence Test AMARE, percentage damage caused to the plant (five-point scale) ([9]; 1000 g/ha) | Pre-emergence Test AMAPA, percentage damage caused to the plant (five-point scale) ([11]; 1000 g/ha)
3 (3=41-60%): percentage damage caused to the plant, SETFA (five-point scale) (Setaria faberi (SETFA) [2]; 1000 g/ha) | percentage damage caused to the plant, ECHCG (five-point scale) ([6]; 1000 g/ha) | percentage damage caused to the plant, ZEAMX (five-point scale) (Zea mays (ZEAMX) [8]; 1000 g/ha)

CCn1c(Cn2nc(C(F)(F)F)cc2OC)cc(=O)c(C(=O)O)c1-c1ccc(Cl)c(Cl)c1 [Compound 145, 2-(3,4-dichlorophenyl)-1-ethyl-6-[[5-methoxy-3-(trifluoromethyl)pyrazol-1-yl]methyl]-4-oxo-pyridine-3-carboxylic acid]
3 (3=41-60%): percentage damage caused to the plant, SETFA (five-point scale) (Setaria faberi (SETFA) [2]; 250 g/Ha) | Pre-emergence Test IPOHE, percentage damage caused to the plant (five-point scale) ([5]; 1000 g/ha) | percentage damage caused to the plant, ECHCG (five-point scale) ([6]; 250 g/Ha) | percentage damage caused to the plant, AMAPA (five-point scale) ([7]; 1000 g/ha) | percentage damage caused to the plant, ZEAMX (five-point scale) (Zea mays (ZEAMX) [8]; 1000 g/ha) | percentage damage caused to the plant, IPOHE (five-point scale) ([10]; 250 g/Ha) | percentage damage caused to the plant, IPOHE (five-point scale) ([10]; 1000 g/ha) | percentage damage caused to the plant, AMARE (five-point scale) ([12]; 1000 g/ha)
0: Pre-emergence Test ZEAMX, percentage damage caused to the plant (five-point scale) (Zea mays (ZEAMX) [1]; 250 g/Ha (*)) | Pre-emergence Test ZEAMX, percentage damage caused to the plant (five-point scale) (Zea mays (ZEAMX) [1]; 1000 g/ha) | Pre-emergence Test IPOHE, percentage damage caused to the plant (five-point scale) ([5]; 250 g/Ha (*)) | percentage damage caused to the plant, AMAPA (five-point scale) ([7]; 250 g/Ha) | Pre-emergence Test AMARE, percentage damage caused to the plant (five-point scale) ([9]; 250 g/Ha (*)) | Pre-emergence Test AMAPA, percentage damage caused to the plant (five-point scale) ([11]; 250 g/Ha (*)) | Pre-emergence Test AMAPA, percentage damage caused to the plant (five-point scale) ([11]; 1000 g/ha)
4 (4=61-80%): percentage damage caused to the plant, SETFA (five-point scale) (Setaria faberi (SETFA) [2]; 1000 g/ha) | Pre-emergence Test ECHCG, percentage damage caused to the plant (five-point scale) ([4]; 1000 g/ha) | percentage damage caused to the plant, ECHCG (five-point scale) ([6]; 1000 g/ha)
2 (2=21-40%): Pre-emergence Test ECHCG, percentage damage caused to the plant (five-point scale) ([4]; 250 g/Ha (*))
1 (1=0-20%): percentage damage caused to the plant, ZEAMX (five-point scale) (Zea mays (ZEAMX) [8]; 250 g/Ha) | Pre-emergence Test AMARE, percentage damage caused to the plant (five-point scale) ([9]; 1000 g/ha) | percentage damage caused to the plant, AMARE (five-point scale) ([12]; 250 g/Ha)
5 (5=81-100%): Pre-emergence Test SETFA, percentage damage caused to the plant (five-point scale) (Setaria faberi (SETFA) [3]; 250 g/Ha (*)) | Pre-emergence Test SETFA, percentage damage caused to the plant (five-point scale) (Setaria faberi (SETFA) [3]; 1000 g/ha)

CCn1c(Cn2nc(C)cc2O)cc(=O)c(C(=O)O)c1-c1ccc(Cl)c(Cl)c1 [Compound 146, 2-(3,4-dichlorophenyl)-1-ethyl-6-[(5-hydroxy-3-methyl-pyrazol-1-yl)methy]-4-oxo-pyridine-3-carboxylic acid]
1 (1=0-20%): percentage damage caused to the plant, SETFA (five-point scale) (Setaria faberi (SETFA) [2]; 1000 g/ha) | Pre-emergence Test SETFA, percentage damage caused to the plant (five-point scale) (Setaria faberi (SETFA) [3]; 1000 g/ha) | Pre-emergence Test ECHCG, percentage damage caused to the plant (five-point scale) ([4]; 1000 g/ha)
0: Pre-emergence Test ZEAMX, percentage damage caused to the plant (five-point scale) (Zea mays (ZEAMX) [1]; 1000 g/ha) | Pre-emergence Test IPOHE, percentage damage caused to the plant (five-point scale) ([5]; 1000 g/ha) | percentage damage caused to the plant, ECHCG (five-point scale) ([6]; 1000 g/ha) | percentage damage caused to the plant, AMAPA (five-point scale) ([7]; 1000 g/ha) | percentage damage caused to the plant, ZEAMX (five-point scale) (Zea mays (ZEAMX) [8]; 1000 g/ha) | Pre-emergence Test AMARE, percentage damage caused to the plant (five-point scale) ([9]; 1000 g/ha) | percentage damage caused to the plant, IPOHE (five-point scale) ([10]; 1000 g/ha) | Pre-emergence Test AMAPA, percentage damage caused to the plant (five-point scale) ([11]; 1000 g/ha) | percentage damage caused to the plant, AMARE (five-point scale) ([12]; 1000 g/ha)
